Test results published in US20090215849A1, “High stability aqueous gels comprising metronidazole and methods for the preparation thereof” (GALDERMA S.A., priority 2005, published 2009).

Test: Solubility of metronidazole in water
Assay type: physicochemical
Details: water/propylene glycol mixtures said to give higher solubilities (values not given)
Text: Without wishing to be bound by any particular theory, it is possible that the stabilizing effect according to the invention is at least partly due to the fact that a mixture of water and propylene glycol allows a very good solubilization of metronidazole, in particular when the water and the propylene glycol are present in the abovementioned advantageous ranges, whereas a lower solubilization is obtained when the propylene glycol is introduced after the dissolution of the metronidazole in water, even when the propylene glycol is post-introduced in large quantities as in the method of U.S. Pat. No. 4,837,378.

SMILES: Cc1ncc([N+](=O)[O-])n1CCO [Metronidazole, 1-(2-hydroxyethyl)-2-methyl-5-nitroimidazole]
- solubility in water: ~0.78%
